In patent publication US12644133B2, “Methods and compositions to increase somatic cell nuclear transfer (SCNT) efficiency by removing histone H3-lysine trimethylation” (The Children's Medical Center Corporation, priority 2014, dated 2026):

How the values were obtained:
[1] = test system: SCNT embryos transferred to pseudopregnant ICR females; test: In vivo development of 2-cell SCNT embryos after embryo transfer (caesarian section at E19.5); parameters: species or system mouse; conditions: for Body weight at birth (g ± SD) / Placenta weight at birth (g ± SD) / No. of implanted / No. of pups / implanted (% per ET) / pups (% per ET): Kdm4d mRNA 1800 ng/μl
Excerpt: Two-cell stage embryos generated by SCNT or in vitro fertilization were transferred to the oviducts of pseudopregnant (E0.5) ICR females. The pups were recovered by caesarian section on the day of delivery (E19.5) and nursed by lactating ICR females.

[2] = test system: reprogramming resistant regions (RRRs); test: RNA-seq analysis of 2-cell SCNT embryos; assay type: cell-based, mouse
Method: The embryos were directly lysed and used for cDNA synthesis using SMARTer Ultra Low Input RNA cDNA preparation kit (Clontech). After amplification, the cDNA samples were fragmented using Covaris sonicator (Covaris). Sequencing libraries were made with the fragmented DNA using NEBNext Ultra DNA Library Prep Kit for Illumina according to manufacturer's instruction (New England Biolabs). Single end 50 bp sequencing was performed on a HiSeq 2500 sequencer (Illumina). Sequencing reads were mapped to the mouse genome (mm9) with NovoalignV3.02.00. All programs were performed with default settings (unless otherwise specified). Uniquely mapped reads (about 70% of total reads) were subsequently assembled into transcripts guided by the reference annotation (UCSC gene models) with Cufflinks v2.0.2. Expression level of each gene was quantified with normalized FPKM (fragments per kilobase of exon per million mapped fragments). […] Statistical analyses were implemented with R (world wide web at www.r-project.org/). Independent 2-group Wilcoxon rank sum test were used to compare distributions using the wilcox.test function in R. Pearson's r coefficient was calculated using the cor function with default parameters. The hierarchical clustering analysis of the global gene expression pattern in different samples was carried out using hearmap.2 function (gplots package) in R.
A sliding window (size 100 kb, step size 20 kb) was used to assess the genome-wide expression level of 1-cell and 2-cell embryos. For each window, the expression level was quantified with normalized RPM (reads per millions of uniquely mapped reads). […] These activated regions were classed into three groups based on their expression differences in SCNT and IVF 2-cell embryos.

H3K9me3 = test: Immunostaining of H3K9me3 in SCNT embryos; assay type: cell-based, mouse; conditions: mRNA injected at 5 hpa; cumulus donor cells
Method: Somatic cell nuclear transfer was carried out as described previously (Matoba et al., 2011). Briefly, recipient MII oocytes were collected from superovulated adult BDF1 females by brief treatment with 300 U/ml bovine testicular hyaluronidase (Calbiochem). Isolated MII oocytes were enucleated in Hepes-buffered KSOM medium containing 7.5 μg/ml of cytochalasin B (Calbiochem #250233). The nuclei of donor cumulus cells or Sertoli cells were injected into the enucleated oocytes using a Piezo-driven micromanipulator (Primetech #PMM-150FU). MEF cells were fused with enucleated oocytes by inactivated Sendai virus envelope (HVJ-E; Ishihara Sangyo, Japan). After 1 h incubation in KSOM, reconstructed SCNT oocytes were activated by incubation in Ca-free KSOM containing 5 μg/ml cytochalasin B for 1 h and further cultured in KSOM with cytochalasin B for 4 h. Activated SCNT embryos were washed 5 h after the onset of SrCl2 treatment (hours post activation, hpa) and cultured in KSOM in a humidified atmosphere of 5% CO2 at 37.8° C. In some experiments, SCNT embryos were injected with ˜10 pl of water (control), 1800 ng/μl wild-type or mutant (H189A) Kdm4d mRNA at 5-6 hpa by using a Piezo-driven micromanipulator (Primetech). […] Preimplantation developmental rates were statistically analyzed by Student's T-test. […]

[3] = Sertoli donor cells (BDF1, male)
[4] = Sertoli donor cells (BDF1, male), E19.5
[5] = Sertoli donor cells (BDF1, male), E19.5, listed as Kdm4d
[6] = Sertoli donor cells (BDF1, male), E19.5, listed as Kdm4d WT
[7] = cumulus donor cells (BDF1, female)
[8] = cumulus donor cells (BDF1, female), E19.5

Kdm4d WT mRNA: in vitro transcribed full length mouse Kdm4d mRNA, encoding an H3K9me3-specific histone demethylase
Body weight at birth (g ± SD) [1, 3]: 1.48 ± 0.11 g
Placenta weight at birth (g ± SD) [1, 3]: 0.26 ± 0.10 g
No. of implanted [1, 4]: 59
No. of pups [1, 4]: 8
implanted (% per ET) [1, 5]: 64%
pups (% per ET) [1, 5]: 8.7%
implanted (% per ET) [1, 6]: 64.1%
pups (% per ET) [1, 6]: (8.7) %
Body weight at birth (g ± SD) [1, 7]: 1.60 ± 0.15 g
Placenta weight at birth (g ± SD) [1, 7]: 0.32 ± 0.03 g
No. of implanted [1, 8]: 75
No. of pups [1, 8]: 9
implanted (% per ET) [1, 8]: 63.0%
pups (% per ET) ([1]; cumulus donor cells (BDF1, female), E19.5, listed as Kdm4d): 7.6%
pups (% per ET) ([1]; cumulus donor cells (BDF1, female), E19.5, listed as Kdm4d WT): (7.6) %
rate of implantation relative to control SCNT embryos ([1]; cumulus donor cells, E19.5): 3 fold
growth and fertility of SCNT pups (in words) ([1]; mouse, in vivo): grew normally to adulthood and generated offspring by natural mating
repression of major satellite repeats in 2-cell SCNT embryos (in words) [2]: completely restored
% of the 222 RRRs activated (FC >2) compared to control SCNT embryos ([2]; 2-cell SCNT embryos): 83%
SCNT-induced repression of class III retrotransposon elements such as MERVL (in words) ([2]; 2-cell SCNT embryos): partly relieved
number of the 222 RRRs activated (FC >2) ([2]; 2-cell SCNT embryos): 184
total number of differentially expressed genes (FC >3) between SCNT and IVF 2-cell embryos ([2]; 1212 without injection): 475
reduction of H3K9me3 levels in SCNT embryos (in words) (H3K9me3): greatly reduced H3K9me3 levels
